In patent US20250188150A1, “PEPTIDES FOR THE TREATMENT OF FIBROSIS” (Technion Research & Development Foundation Limited, priority 2022, published 2025):

Experiments:
[1] = target: T1, LOXL3 (Homo sapiens, UniProt P58215); experiment: Oxidation assay of peptides by LOXL3; assay type: biochemical; details: for oxidation of the peptide by LOXL3: oxidation assay
T1 sequence (P58215 26-753): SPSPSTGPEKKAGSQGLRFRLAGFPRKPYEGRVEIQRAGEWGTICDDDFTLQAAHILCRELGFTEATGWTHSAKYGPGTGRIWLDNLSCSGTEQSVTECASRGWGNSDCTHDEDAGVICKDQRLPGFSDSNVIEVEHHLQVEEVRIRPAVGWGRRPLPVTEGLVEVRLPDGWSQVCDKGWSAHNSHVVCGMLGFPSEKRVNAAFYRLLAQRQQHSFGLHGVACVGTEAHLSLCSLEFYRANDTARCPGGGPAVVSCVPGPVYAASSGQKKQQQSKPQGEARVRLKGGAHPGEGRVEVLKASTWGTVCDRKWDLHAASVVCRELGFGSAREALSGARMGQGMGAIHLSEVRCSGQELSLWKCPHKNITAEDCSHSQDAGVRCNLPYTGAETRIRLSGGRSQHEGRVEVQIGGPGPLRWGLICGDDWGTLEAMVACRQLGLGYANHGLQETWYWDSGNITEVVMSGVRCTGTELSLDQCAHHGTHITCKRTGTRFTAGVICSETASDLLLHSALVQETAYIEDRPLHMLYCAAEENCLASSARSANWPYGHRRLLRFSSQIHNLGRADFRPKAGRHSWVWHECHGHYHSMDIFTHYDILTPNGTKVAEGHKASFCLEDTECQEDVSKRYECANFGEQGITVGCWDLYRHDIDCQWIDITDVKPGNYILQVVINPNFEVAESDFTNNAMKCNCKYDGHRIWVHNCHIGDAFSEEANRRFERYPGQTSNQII

[2] = test system: lung fibroblasts; experiment: Lung fibroblast proliferation (culture confluency) with peptides; assay type: cell-based; details: following 72 hours in culture
Source text: Note the lack of effect in the first day of culturing (G).

[3] = target: T1, LOXL3; experiment: Spreading and adhesion of Pax-GFP cells on LOXL3-treated FN with or without βAPN; assay type: cell-based; design: purchased R&D systems 6069-AO
Procedure: Spreading and soft gel experiments: Ibidi 8-wellplates (Ibidi, 190814/1) were coated with human plasma FN (hFN, Sigma-Aldrich, FC010-10MG, 10 μg/ml) for 1 hour at 37° C. Afterwards, the samples were treated with human recombinant LOXL3 (RhLOXL3, R&D systems, 6069-AO) or LOXL2 (RhLOXL2, R&D systems, 2639-AO) for 5 hours (or sodium borate buffer 50 mM as control), with or without 200 mM βAPN (Sigma, A3134-25G) and then washed. Then, cells were seeded on the FN matrix and fixed at varying time points after spreading, followed by immunostaining. For soft gel experiments, Ibidi 8-well plates were covered with silicone gels (DOWSIL, CY 52-276 A&B), prepared at different rigidities that were previously calibrated and described (42) previous to FN coating. Images were acquired using an LSM800 confocal microscope (Zeiss) with Airyscan function and 20× or 63× objectives. […]
Nascent adhesion formation, even on very stiff matrices, requires at least four RGD (Arg-Gly-Asp) ligands that are localized within ˜60 nm from each other (35, 36). […] Towards that end, following enzymatic treatment, FN was coated on glass coverslips and Pax-GFP cells were added and shortly after (15 or 30 minutes) fixed and analyzed.

[4] = test system: HDF cells; experiment: HDF cell area after exposure to peptides; assay type: cell-based, human; details: HDF on glass without external FN coating, fixed after 1 week; compared with control peptides or untreated sample
Procedure: (§1) Adhesion, cell area andfibronectin analysis: All of the adhesion and fibronectin fibrils analyses shown in this paper were performed using the trainable Weka segmentation plugin (41) of ImageJ (NIH) software.
Representative images (FIGS. 9A-E) of HDF cell contour following exposure to the different peptides (9B—SEQ ID NO: 21, 9C—SEQ ID NO: 22; 9D—SEQ ID NO: 19; 9E—SEQ ID NO: 20), seeded on glass without external FN coating and fixed after 1 week (A-E, scale=100 μm) illustrate that inhibitor peptides reduce cell size.

[5] = test system: human dermal fibroblast (HDF) cells; experiment: Fibronectin fibrillogenesis (FN immunostaining) under HDF cells exposed to peptides; assay type: cell-based; details: HDF on glass without external FN coating, fixed after 1 week; compared with control peptides (FN1-3, FN1-9) or untreated sample
Procedure: as §1
Immunofluorescence: Cells were fixed with 4% paraformaldehyde solution (36% stock, Sigma-Aldrich, 50-00-0, diluted with PBS) and permeabilized with 0.1% Triton X-100 in PBS (PBT 0.1%). Primary antibodies were incubated with the fixed cells over night at 4° C. After, secondary antibodies and phalloidin were incubated for 1 hour at room temperature. For dSTORM imaging, a second 10 minutes fixation was performed at the end of the immunostaining protocol.
Representative images (FIGS. 8A-E) of fibronectin immunostaining (color-coded for intensity) underneath human dermal fibroblast (HDF) cells exposed to the different peptides (8B—SEQ ID NO: 21, 8C—SEQ ID NO: 22; 8D—SEQ ID NO: 19; 8E—SEQ ID NO: 20), seeded on glass without external FN coating and fixed after 1 week (A-E, scale=20 μm) illustrate that inhibitor peptides block fibronectin fibrillogenesis.

Compound | oxidation of the peptide by LOXL3 [1] | culture confluency (cell proliferation) [2] | effect on LOXL3 oxidation of inhibitor peptides ([1]; addition of βAPN to the oxidation assay) | cell spreading on LOXL3-treated FN ([3]; βAPN added following the FN treatment, compared to treated FN without the inhibitor) | increases in adhesion sizes and cell areas on LOXL3-treated FN ([3]; βAPN added to the FN-LOXL3 mix throughout the reaction, glass, 15 minutes) | cell area [4] | total fibronectin fibrils [5]
DQCQDSETGTFYQIGDSWEKYVHGVRYQCYCYGRGIGEWHCQPL (FN1-9 (control peptide)) | not the control peptides (FN1-3 and FN1-9) undergo oxidation by LOXL3 | not with the control peptide (FN1-9) inhibit cell proliferation | – | – | – | – | –
N#CCCN [βAPN, beta-aminopropionitrile] | – | – | oxidation is inhibited | no difference was observed in cell spreading | blocked | – | –
ETCFDKYTGNTYRVGDTYERPKDSMIWDCTCIGAGRGRISCTIA (FN1-2 (Inhibitor peptide) long version of FN1-2) | undergo oxidation by LOXL3 | inhibit cell proliferation | – | – | – | significant reduction | reduction in fibrils
